From patent US9695155B2, “Herbicidal substituted pyrimidinyloxy benzene compounds” (E. I. DU PONT DE NEMOURS AND COMPANY, priority 2013, dated 2017)

Tests used:
hairy beggarticks = test: Test E preemergence; format: in vivo, Bidens pilosa; settings: for Beggarticks plant response rating: scale 0 to 100 (0 no effect, 100 complete control); for Plant response rating, Beggarticks: scale 0 to 100, 0 no effect, 100 complete control
From the text: (§1) Seeds of plant species selected from corn (Zea mays), soybean (Glycine max), velvetleaf (Abutilon theophrasti), lambsquarters (Chenopodium album), wild poinsettia (Euphorbia heterophylla), palmer pigweed (Amaranthus palmeri), waterhemp (common waterhemp, Amaranthus rudis), surinam grass (Brachiaria decumbens), large (Lg) crabgrass (Digitaria sanguinalis), Brazilian crabgrass (Digitaria horizontalis), fall panicum (Panicum dichotomiflorum), giant foxtail (Setaria faberii), green foxtail (Setaria viridis), goosegrass (Eleusine indica), johnsongrass (Sorghum halepense), ragweed (common ragweed, Ambrosia elatior), barnyardgrass (Echinochloa crus-galli), sandbur (southern sandbur, Cenchrus echinatus), arrowleaf sida (Sida rhombifolia), Italian ryegrass (Lolium multiflorum), dayflower (Virginia (VA) dayflower, Commelina virginica), field bindweed (Convolvulus arvensis), morningglory (Ipomoea coccinea), nightshade (eastern black nightshade, Solanum ptycanthum), kochia (Kochia scoparia), yellow nutsedge (Cyperus esculentus), cocklebur (common cocklebur, Xanthium strumarium), smartweed (ladysthumb smartweed, and hairy beggarticks (Bidens pilosa), were planted into a silt loam soil and treated preemergence with test chemicals formulated in a non-phytotoxic solvent mixture which included a surfactant.
(§2) At the same time, plants from these crop and weed species and also horseweed (Canada horseweed, Conyza canadensis), waterhemp_RES1, (ALS & Triazine resistant common waterhemp, Amaranthus rudis), and waterhemp_RES2, (ALS & HPPD resistant common waterhemp, Amaranthus rudis) were planted in pots containing Redi-Earth® planting medium (Scotts Company, 14111 Scottslawn Road, Marysville, Ohio 43041) comprising spaghnum peat moss, vermiculite, wetting agent and starter nutrients were treated with postemergence applications of test chemicals formulated in the same manner. Plants ranged in height from 2 to 18 cm for postemergence treatments (1- to 4-leaf stage). Treated plants and controls were maintained in a greenhouse for 14 to 21 days, after which time all species were compared to controls and visually evaluated. Plant response ratings, summarized in Table E, are based on a scale of 0 to 100 where 0 is no effect and 100 is complete control. A dash (-) response means no test result.

surinam grass = test: Test E preemergence; format: in vivo, Brachiaria decumbens; settings: for Surinam Grass plant response rating: scale 0 to 100 (0 no effect, 100 complete control); for Plant response rating, Surinam Grass: scale 0 to 100, 0 no effect, 100 complete control
From the text: as §1, §2

wild poinsettia = test: Test E preemergence; format: in vivo, Euphorbia heterophylla; settings: for Poinsettia, Wild plant response rating: scale 0 to 100 (0 no effect, 100 complete control); for Plant response rating, Poinsettia, Wild: scale 0 to 100, 0 no effect, 100 complete control
From the text: as §1, §2

green foxtail = test: Test E preemergence; format: in vivo, Setaria viridis; settings: for Foxtail, Green plant response rating: scale 0 to 100 (0 no effect, 100 complete control); for Plant response rating, Foxtail, Green: scale 0 to 100, 0 no effect, 100 complete control
From the text: as §1, §2

nightshade = test: Test E preemergence; format: in vivo, Solanum ptycanthum; settings: for Nightshade plant response rating: scale 0 to 100 (0 no effect, 100 complete control); for Plant response rating, Nightshade: scale 0 to 100, 0 no effect, 100 complete control
From the text: as §1, §2

soybean = test: Test E preemergence; format: in vivo, Glycine max; settings: for Soybean plant response rating: scale 0 to 100 (0 no effect, 100 complete control); for Plant response rating, Soybean: scale 0 to 100, 0 no effect, 100 complete control
From the text: as §1, §2

velvetleaf = test: Test E preemergence; format: in vivo, Abutilon theophrasti; settings: for Velvetleaf plant response rating: scale 0 to 100 (0 no effect, 100 complete control); for Plant response rating, Velvetleaf: scale 0 to 100, 0 no effect, 100 complete control
From the text: as §1, §2

ragweed = test: Test E preemergence; format: in vivo, Ambrosia elatior; settings: for Ragweed plant response rating: scale 0 to 100 (0 no effect, 100 complete control); for Plant response rating, Ragweed: scale 0 to 100, 0 no effect, 100 complete control
From the text: as §1, §2

fall panicum = test: Test E preemergence; format: in vivo, Panicum dichotomiflorum; settings: for Panicum, Fall plant response rating: scale 0 to 100 (0 no effect, 100 complete control); for Plant response rating, Panicum, Fall: scale 0 to 100, 0 no effect, 100 complete control
From the text: as §1, §2

waterhemp = test: Test E preemergence; format: in vivo, Amaranthus rudis; settings: for Waterhemp plant response rating: scale 0 to 100 (0 no effect, 100 complete control); for Plant response rating, Waterhemp: scale 0 to 100, 0 no effect, 100 complete control
From the text: as §1, §2

kochia = test: Test E preemergence; format: in vivo, Kochia scoparia; settings: for Kochia plant response rating: scale 0 to 100 (0 no effect, 100 complete control); for Plant response rating, Kochia: scale 0 to 100, 0 no effect, 100 complete control
From the text: as §1, §2

sandbur = test: Test E preemergence; format: in vivo, Cenchrus echinatus; settings: for Sandbur plant response rating: scale 0 to 100 (0 no effect, 100 complete control); for Plant response rating, Sandbur: scale 0 to 100, 0 no effect, 100 complete control
From the text: as §1, §2

Brazilian crabgrass = test: Test E preemergence; format: in vivo, Digitaria horizontalis; settings: for Plant response rating, Crabgrass, Brazil: scale 0 to 100, 0 no effect, 100 complete control
From the text: as §1, §2

ducksalad = test: Test C flooded paddy test; format: in vivo, Heteranthera limosa; settings: Flood, scale 0 to 100 (0 no effect, 100 complete control), 13 to 15 days
Outline: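 Under a constant 3 cm flood, test compounds went directly into the paddy water. Following 13 to 15 days of greenhouse growth, treated species and controls were compared by eye.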

Q: For `FC(F)(F)c1cnn(-c2ccccc2Oc2ncc(Cl)cn2)c1` [Compound 16], which “Beggarticks plant response rating” value (hairy beggarticks; 16 g ai/ha, preemergence) is on record?
A: 0

Q: What about the “Beggarticks plant response rating” value (hairy beggarticks; 31 g ai/ha, preemergence) of the same compound?
A: 0

Q: And the “Plant response rating, Beggarticks” value (hairy beggarticks; Preemergence, 62 g ai/ha)?
A: 0

Q: And the “Plant response rating, Beggarticks” value (hairy beggarticks; preemergence, 125 g ai/ha)?
A: 0

Q: And the “Plant response rating, Beggarticks” value (hairy beggarticks; preemergence, 250 g ai/ha)?
A: 0

Q: And the “Surinam Grass plant response rating” value (surinam grass; 16 g ai/ha)?
A: 0

Q: What about the “Surinam Grass plant response rating” value (surinam grass; 31 g ai/ha) of the same compound?
A: 0

Q: And the “Surinam Grass plant response rating” value (surinam grass; 62 g ai/ha)?
A: 0

Q: And the “Plant response rating, Surinam Grass” value (surinam grass; 125 g ai/ha)?
A: 30

Q: And the “Plant response rating, Surinam Grass” value (surinam grass; 250 g ai/ha)?
A: 50

Q: What about the “Poinsettia, Wild plant response rating” value (wild poinsettia; 16 g ai/ha) of the same compound?
A: 0

Q: What about the “Poinsettia, Wild plant response rating” value (wild poinsettia; 31 g ai/ha) of the same compound?
A: 0

Q: And the “Poinsettia, Wild plant response rating” value (wild poinsettia; 62 g ai/ha)?
A: 50

Q: What about the “Plant response rating, Poinsettia, Wild” value (wild poinsettia; 125 g ai/ha) of the same compound?
A: 50

Q: And the “Plant response rating, Poinsettia, Wild” value (wild poinsettia; 250 g ai/ha)?
A: 100

Q: And the “Foxtail, Green plant response rating” value (green foxtail; 16 g ai/ha)?
A: 0

Q: What about the “Foxtail, Green plant response rating” value (green foxtail; 31 g ai/ha) of the same compound?
A: 20

Q: What about the “Foxtail, Green plant response rating” value (green foxtail; 62 g ai/ha) of the same compound?
A: 70

Q: What about the “Plant response rating, Foxtail, Green” value (green foxtail; 125 g ai/ha) of the same compound?
A: 90

Q: What about the “Plant response rating, Foxtail, Green” value (green foxtail; 250 g ai/ha) of the same compound?
A: 100

Q: And the “Nightshade plant response rating” value (nightshade; 16 g ai/ha)?
A: 0

Q: What about the “Nightshade plant response rating” value (nightshade; 31 g ai/ha) of the same compound?
A: 98

Q: What about the “Nightshade plant response rating” value (nightshade; 62 g ai/ha) of the same compound?
A: 100

Q: And the “Plant response rating, Nightshade” value (nightshade; 125 g ai/ha)?
A: 100

Q: And the “Plant response rating, Nightshade” value (nightshade; 250 g ai/ha)?
A: 100

Q: What about the “Soybean plant response rating” value (soybean; 16 g ai/ha) of the same compound?
A: 0

Q: What about the “Soybean plant response rating” value (soybean; 31 g ai/ha) of the same compound?
A: 60

Q: And the “Soybean plant response rating” value (soybean; 62 g ai/ha)?
A: 60

Q: What about the “Plant response rating, Soybean” value (soybean; 125 g ai/ha) of the same compound?
A: 90

Q: What about the “Plant response rating, Soybean” value (soybean; 250 g ai/ha) of the same compound?
A: 95

Q: What about the “Velvetleaf plant response rating” value (velvetleaf; 16 g ai/ha) of the same compound?
A: 0

Q: What about the “Velvetleaf plant response rating” value (velvetleaf; 31 g ai/ha) of the same compound?
A: 50

Q: What about the “Velvetleaf plant response rating” value (velvetleaf; 62 g ai/ha) of the same compound?
A: 85

Q: What about the “Plant response rating, Velvetleaf” value (velvetleaf; 125 g ai/ha) of the same compound?
A: 100

Q: What about the “Plant response rating, Velvetleaf” value (velvetleaf; 250 g ai/ha) of the same compound?
A: 100

Q: What about the “Ragweed plant response rating” value (ragweed; 16 g ai/ha) of the same compound?
A: 0

Q: What about the “Ragweed plant response rating” value (ragweed; 31 g ai/ha) of the same compound?
A: 0

Q: And the “Ragweed plant response rating” value (ragweed; 62 g ai/ha)?
A: 0

Q: And the “Plant response rating, Ragweed” value (ragweed; 125 g ai/ha)?
A: 30

Q: What about the “Plant response rating, Ragweed” value (ragweed; 250 g ai/ha) of the same compound?
A: 65

Q: What about the “Panicum, Fall plant response rating” value (fall panicum; 16 g ai/ha) of the same compound?
A: 0

Q: What about the “Panicum, Fall plant response rating” value (fall panicum; 31 g ai/ha) of the same compound?
A: 80

Q: What about the “Panicum, Fall plant response rating” value (fall panicum; 62 g ai/ha) of the same compound?
A: 100

Q: And the “Plant response rating, Panicum, Fall” value (fall panicum; 125 g ai/ha)?
A: 100

Q: And the “Plant response rating, Panicum, Fall” value (fall panicum; 250 g ai/ha)?
A: 100

Q: What about the “Waterhemp plant response rating” value (waterhemp; 16 g ai/ha) of the same compound?
A: 100

Q: And the “Waterhemp plant response rating” value (waterhemp; 31 g ai/ha)?
A: 100

Q: What about the “Waterhemp plant response rating” value (waterhemp; 62 g ai/ha) of the same compound?
A: 100

Q: And the “Plant response rating, Waterhemp” value (waterhemp; 125 g ai/ha)?
A: 100

Q: And the “Plant response rating, Waterhemp” value (waterhemp; 250 g ai/ha)?
A: 100

Q: And the “Kochia plant response rating” value (kochia; 16 g ai/ha)?
A: 0

Q: And the “Kochia plant response rating” value (kochia; 31 g ai/ha)?
A: 0

Q: And the “Kochia plant response rating” value (kochia; 62 g ai/ha)?
A: 65

Q: What about the “Plant response rating, Kochia” value (kochia; 125 g ai/ha) of the same compound?
A: 100

Q: What about the “Plant response rating, Kochia” value (kochia; 250 g ai/ha) of the same compound?
A: 100

Q: And the “Sandbur plant response rating” value (sandbur; 16 g ai/ha)?
A: 0

Q: And the “Sandbur plant response rating” value (sandbur; 31 g ai/ha)?
A: 20

Q: And the “Sandbur plant response rating” value (sandbur; 62 g ai/ha)?
A: 20

Q: And the “Plant response rating, Sandbur” value (sandbur; 125 g ai/ha)?
A: 70

Q: What about the “Plant response rating, Sandbur” value (sandbur; 250 g ai/ha) of the same compound?
A: 95

Q: What about the “Crabgrass, Brazil plant response rating” value (Brazilian crabgrass; 62 g ai/ha, scale 0 to 100 (0 no effect, 100 complete control)) of the same compound?
A: 100

Q: What about the “Plant response rating, Crabgrass, Brazil” value (Brazilian crabgrass; 125 g ai/ha) of the same compound?
A: 100

Q: And the “Plant response rating, Crabgrass, Brazil” value (Brazilian crabgrass; 250 g ai/ha)?
A: 100

Q: For `Fc1cccc(Oc2ncc(Cl)cn2)c1-n1cc(OCC(F)(F)F)cn1` [Compound 270], which “Plant response rating, Ducksalad” value (ducksalad; 31 g ai/ha) is on record?
A: 20

Q: What about the “Plant response rating, Ducksalad” value (ducksalad; 62 g ai/ha) of the same compound?
A: 60

Q: What about the “Plant response rating, Ducksalad” value (ducksalad; 125 g ai/ha) of the same compound?
A: 80

Q: And the “Plant response rating, Ducksalad” value (ducksalad; 250 g ai/ha)?
A: 95

Q: With `N#Cc1cccc(Oc2ncc(F)cn2)c1-n1cc(Br)cn1` [Compound 62] as the compound, how does the “Plant response rating, Ducksalad” value (ducksalad; 31 g ai/ha) read?
A: 30

Q: What about the “Plant response rating, Ducksalad” value (ducksalad; 62 g ai/ha) of the same compound?
A: 70

Q: And the “Plant response rating, Ducksalad” value (ducksalad; 125 g ai/ha)?
A: 85

Q: What about the “Plant response rating, Ducksalad” value (ducksalad; 250 g ai/ha) of the same compound?
A: 100

Q: `FCc1cccc(Oc2ncc(Br)cn2)c1-n1cc(C(F)(F)F)cn1` [Compound 120] was tested. Which “Plant response rating, Ducksalad” value (ducksalad; 31 g ai/ha) did it give?
A: 0

Q: And the “Plant response rating, Ducksalad” value (ducksalad; 62 g ai/ha)?
A: 40

Q: And the “Plant response rating, Ducksalad” value (ducksalad; 125 g ai/ha)?
A: 80

Q: What about the “Plant response rating, Ducksalad” value (ducksalad; 250 g ai/ha) of the same compound?
A: 90

Q: Which “Plant response rating, Ducksalad” value (ducksalad; 31 g ai/ha) does the source give for `N#Cc1cnn(-c2c(Oc3ncc(Cl)cn3)cccc2C(F)F)c1` [Compound 236] here?
A: 0

Q: And the “Plant response rating, Ducksalad” value (ducksalad; 62 g ai/ha)?
A: 40

Q: What about the “Plant response rating, Ducksalad” value (ducksalad; 125 g ai/ha) of the same compound?
A: 80

Q: And the “Plant response rating, Ducksalad” value (ducksalad; 250 g ai/ha)?
A: 90
